pIC50: −log10 of the molar value. Structures can show the parent of a compound that is named as a salt.

The target in data set [1] is T1, hERG potassium ion channel (Homo sapiens, UniProt Q12809).
T1 construct: expressed in transfected cells; host or cells: CHO-hERG cells
Kind of data set: Inhibition test for hERG potassium ion channel (automatic patch-clamp, CHO-hERG cells). As to conditions: Qpatch, highest test concentration 40 μM. The class given is cell-based. The method, then: Experimental purpose: to detect the effect of the embodiments to be tested on the potassium ion channel of hERG by using the fully automatic patch-clamp method.
6.1.1 CHO-hERG cells were cultured in a 175 cm^2 culture flask, after the cell density was increased to 60-80%, the culture medium was removed, the cells were washed once with 7 mL PBS (Phosphate Buffered Saline), and then 3 mL digestive fluid was added for digestion.
6.1.2 After the digestion was complete, 7 mL of culture medium was added for neutralization, then the mixture was centrifuged, the supernatant was aspirated, and then 5 mL of culture medium was added for resuspention to ensure that the cell density was 2-5×10^6/mL.
The single-cell high-impedance sealing and the whole-cell mode formation process were all automatically completed by the Qpatch instrument of the Shanghai Institute of Materia Medica, Chinese Academy of Sciences. After the whole-cell recording mode was obtained, the cells were clamped at −80 millivolts. […] The data were recorded for 2 minutes, then extracellular fluid was administrated, and then the data were recorded for 5 minutes. […]
The experimental data were analyzed by XLFit software.

The test system of data set [2] is MC38 mouse colon cancer transplanted tumor model. Kind of data set: In vivo pharmacodynamic study on MC38 mouse colon cancer transplanted tumor model. More on the design: species or system C57BL/6 mice. The conditions noted are these: compound 6 hydrochloride 1.5 mg/kg oral once a day, PD-1 mAb 5 mg/kg i.p. twice a week. The protocol: The purpose of this experiment was to evaluate the in vivo efficacy of the compounds of the present disclosure on MC38 mouse colon cancer transplanted tumor model.
Name: MC38 (Mouse Colon Cancer Cell)
Cell culture: 1640 medium containing 10% fetal bovine serum was used as culture medium, and the culture condition was 37° C., 5% carbon dioxide. The passage ratio was 1:2 to 1:3, the passage was performed 2-3 times per week.
0.1 mL (2×10^5 cells) of cells were subcutaneously inoculated into the right back of each mouse. On the same day, the animals were randomly grouped according to their body weight. […]
The experimental indicator is to investigate whether the tumor growth was inhibited, delayed or cured. Tumor diameters were measured with a vernier caliper twice a week. The tumor volume was calculated by the formula: V=0.5a×b^2, a and b respectively represent the long and short diameters of the tumor.
The efficacy of the compound was evaluated by relative tumor growth rate T/C (%). […] The relative tumor volume (RTV) was calculated based on the results of tumor measurement, the calculation formula was: RTV=Vt/V0, wherein V0 was the average tumor volume measured at the time of grouping administration (i.e., do), Vt is the average tumor volume measured at a single time, TRTV and CRTV were calculated from the data on the same day.

The nature of data set [3]: In vivo pharmacokinetics in CD-1 mice. The conditions noted are these: male CD-1 mice. The method, then: CD-1 mice (male, 7-9 weeks old, Shanghai Slac)
The rodent pharmacokinetic characteristics after intravenous injection and oral administration of the compounds were tested by standard protocols, in the experiment, the candidate compounds were formulated into clear solutions and administrated to mice via a single intravenous injection and oral administration. The vehicle for intravenous injection and oral administration was a mixed solution of 10% of dimethyl sulfoxide and 90% of 10% hydroxypropyl β cyclodextrin. This project used four male CD-1 mice, two mice were administered intravenously, with a dose of 1 mg/kg, and plasma samples were collected at 0 hour (before administration) and 0.0833, 0.25, 0.5, 1, 2, 4, 8, 24 hours after administration. The other two mice were orally administered by gavage, with a dose of 2 mg/kg, plasma samples were collected at 0 hour (before administration) and 0.25, 0.5, 1, 2, 4, 8, 24 hours after administration, whole blood samples were collected within 24 hours, which were centrifuged at 3000 g for 15 minutes, and the supernatants were separated to obtain plasma samples, 4 times volume of acetonitrile solutions containing internal standard were added to precipitate the protein, the mixtures were centrifuged to obtain the supernatants, the supernatants were added with water of equal volume and centrifuged again to take the supernatant for injection, and the blood drug concentration was quantitatively analyzed by the LC-MS/MS analysis method, and pharmacokinetic parameters were calculated, such as max concentration (Cmax), clearance (CL), half-life (T1/2), volumes of distribution (Vdss), the area under the plasma concentration-time curve (AUC0-last), bioavailability (F) etc.

T1 sequence (Q12809 whole entry): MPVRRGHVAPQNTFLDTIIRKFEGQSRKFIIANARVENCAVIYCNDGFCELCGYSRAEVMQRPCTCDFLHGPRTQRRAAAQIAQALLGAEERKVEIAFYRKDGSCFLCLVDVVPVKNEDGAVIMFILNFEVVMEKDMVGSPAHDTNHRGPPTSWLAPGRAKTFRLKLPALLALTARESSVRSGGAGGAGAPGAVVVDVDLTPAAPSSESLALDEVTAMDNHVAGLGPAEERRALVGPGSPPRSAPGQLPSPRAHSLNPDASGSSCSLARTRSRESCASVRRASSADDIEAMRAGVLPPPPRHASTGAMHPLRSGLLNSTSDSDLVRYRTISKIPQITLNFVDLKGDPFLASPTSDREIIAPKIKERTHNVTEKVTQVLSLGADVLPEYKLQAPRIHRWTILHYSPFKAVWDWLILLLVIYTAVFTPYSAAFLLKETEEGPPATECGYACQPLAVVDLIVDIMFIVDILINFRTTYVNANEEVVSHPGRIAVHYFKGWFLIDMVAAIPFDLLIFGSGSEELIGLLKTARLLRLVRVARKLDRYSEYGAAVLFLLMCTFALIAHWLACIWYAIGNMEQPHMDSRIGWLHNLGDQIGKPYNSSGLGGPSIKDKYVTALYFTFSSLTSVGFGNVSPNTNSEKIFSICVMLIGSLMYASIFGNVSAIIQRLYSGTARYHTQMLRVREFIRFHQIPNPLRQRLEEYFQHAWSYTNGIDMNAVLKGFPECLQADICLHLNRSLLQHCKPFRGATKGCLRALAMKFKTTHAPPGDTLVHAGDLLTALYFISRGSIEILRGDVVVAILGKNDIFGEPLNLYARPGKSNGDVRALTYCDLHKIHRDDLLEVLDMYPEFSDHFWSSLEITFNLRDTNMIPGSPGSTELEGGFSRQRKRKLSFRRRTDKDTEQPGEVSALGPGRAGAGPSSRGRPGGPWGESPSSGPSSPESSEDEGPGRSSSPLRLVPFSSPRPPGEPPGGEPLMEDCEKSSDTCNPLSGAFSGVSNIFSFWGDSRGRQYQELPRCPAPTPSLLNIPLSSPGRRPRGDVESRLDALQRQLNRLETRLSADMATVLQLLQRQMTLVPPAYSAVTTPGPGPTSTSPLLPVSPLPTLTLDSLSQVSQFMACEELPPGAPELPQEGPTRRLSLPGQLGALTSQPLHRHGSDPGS

As for `O=C(O)c1ccc(CN2CCC3(CC2)CC(N[C@@H]2C[C@H]2c2ccccc2)CO3)cc1` (stereo partly drawn) [Hydrochloride of the compound 6], the pIC50 in data set [1] is under 4.40. The “Tumor volume (28th day)” value in data set [2] (C57BL/6 mice, 28th day after administration) is on record as 1653 ± 893 mm^3. In addition, the T/C in data set [2] (relative tumor growth rate, 28th day) is listed as 92%. The “Half-life T1/2 (IV)” value in data set [3] (IV 1 mg/kg, 1 mg/kg) was determined as 1.54 h. For the same molecule, the clearance in data set [3] (male, CD-1, mouse, plasma, iv, 1 mg/kg, study doses 1 mg/kg intravenous, 2 mg/kg oral, read-out: Clearance CL) turned out to be 40.2 mL/min/kg. Further, the Vd in data set [3] (male, CD-1, mouse, plasma, iv, 1 mg/kg, study doses 1 mg/kg intravenous, 2 mg/kg oral, read-out: Volumes of distribution Vdss) is 1.19 L/kg. In addition, the Cmax in data set [3] (male, CD-1, mouse, plasma, study doses 1 mg/kg intravenous, 2 mg/kg oral, route not given, read-out: Max concentration Cmax) is 718 nM. Moreover, the AUC(0-t) in data set [3] (male, CD-1, mouse, plasma, po, 2 mg/kg, PO 2 mg/kg, read-out: The area under the plasma concentration-time curve AUC0-last PO) came out at 0.691 µM·h. Moreover, the bioavailability in data set [3] (male, CD-1, mouse, plasma, po, 2 mg/kg, oral 2 mg/kg vs intravenous 1 mg/kg, read-out: Bioavailability F) was determined as 33.2%.

These data come from US11649245B2, “Cyclopropylamine compound as LSD1 inhibitor and use thereof” (HELIOEAST PHARMACEUTICAL CO., LTD., priority 2018, dated 2023).
